Measured values from patent US10968225B2, “Compounds and compositions for the treatment of cystic fibrosis” (Fondazione Istituto Italiano Di Tecnologia, priority 2017, dated 2021).
pEC50: −log10 of the molar value.

Columns and labels:
Format in all cases: cell-based
F508del-CFTR [1] = biological target: T1, F508del-CFTR (Homo sapiens, UniProt P13569, DEL508-508); experiment: Transepithelial electrical conductance (TEEC) in FRT cells; design: expressed in transfected cells; host or cells: FRT cells; details: compounds tested at 5.0 µM; FRT cells expressing F508del-CFTR; 24 hrs incubation; forskolin and genistein stimulation minus PPQ-102 block
Procedure: Transepithelial Electrical Conductance (TEEC)
FRT cells expressing F508del-CFTR were plated on HTS Transwell-24 well permeable supports (Code 3379, Corning Life Sciences) at a density of 200,000 cells/well. After six days, cells were incubated for 24 hrs with test correctors, vehicle, or VX-809. Compounds were dissolved in both basolateral (800 μL) and apical (300 μL) culture medium. After treatment, the culture medium was removed and replaced on both sides with a saline solution containing (in mM): 130 NaCl, 2.7 KCl, 1.5 KH2PO4, 1 CaCl2, 0.5 MgCl2, 10 glucose, 10 Na-Hepes (pH 7.4). The basolateral and apical side received 800 μL and 100 μL, respectively. The 24-well tray with cells was placed on a block heater (SBH 130D, Stuart) to keep the temperature at 37° C. during the entire experiment. After 10 min, the basal transepithelial electrical resistance (TEER) across each layer of FRT cells was measured with a STX100C electrode pair connected to an EVOM2 voltohmeter (World Precision Instruments). To stimulate F508del-CFTR, each well received (apical side) 50 μL of saline solution containing 60 μM forskolin and 150 μM genistein (final concentrations: 20 μM forskolin, 50 μM genistein). Forskolin was also pipetted in the basolateral medium to obtain the 20 μM concentration. After 10 min TEER was measured again in each well. To block F508del-CFTR function, the inhibitor PPQ-102 was used at the final concentration of 30 μM. To achieve the desired concentration, 75 μL of the apical solution in each well was replaced with an equal volume of saline solution containing 20 μM forskolin, 50 μM genistein, and 60 μM PPQ-102. After further 10 min, the transepithelial electrical resistance was measured. All values of TEER were converted to transepithelial electrical conductance (TEEC) using the formula TEEC=1/TEER. The parameter to indicate activity of F508del-CFTR in each well (ΔTEEC) was calculated from the difference in TEEC measured after maximal stimulation of F508del-CFTR with forskolin and genistein and after block with PPQ-102.
Corrector activities obtained on selected compounds tested at 5.0 µM (expressed as ΔTEEC values) are illustrated in table 2, wherein +: ΔTEEC<2000 µS; ++: 2000 µS<ΔTEEC<3000[…]S; +++: ΔTEEC>3000 µS.

F508del-CFTR [2] = biological target: T1, F508del-CFTR; experiment: Short-circuit current recordings on human bronchial epithelial cells; design: Human bronchial epithelial (HBE) cells obtained from CF patients (F508del/F508del genotype); endogenous in cells; host or cells: primary human bronchial epithelial cells from CF patients, F508del/F508del; details: compounds tested at 1.0 µM; HBE cells from CF patients (F508del/F508del); 24 hrs treatment; CPT-cAMP plus VX-770 minus CFTRinh-172
Procedure: Short-Circuit Current Recordings on Human Bronchial Epithelial Cells
Human bronchial epithelial (HBE) cells obtained from CF patients (F508del/F508del genotype) were plated on Snapwell inserts (Code 3801, Corning Life Sciences) at a density of 500,000 cells per insert. Cells were cultured for two weeks in a differentiating medium whose compositions has been previously described (Scudieri et al., J Physiol 590:6141-6155, 2012). For the first week, the medium was kept on both apical and basolateral sides of inserts (submerged condition). For the second week, the apical medium was removed (air-liquid condition, ALC). To test the activity of correctors, cells were treated for 24 hrs with compounds dissolved in the basolateral medium. After treatment, Snapwell inserts carrying differentiated bronchial epithelia were mounted in a vertical chamber resembling an Ussing system with internal fluid circulation. Both apical and basolateral hemichambers were filled with 5 mL of a Krebs bicarbonate solution containing (in mM): 126 NaCl, 0.38 KH2PO4, 2.13 K2HPO4, 1 MgSO4, 1 CaCl2, 24 NaHCO3, and 10 glucose. Both sides were continuously bubbled with a gas mixture containing 5% CO2-95% air and the temperature of the solution was kept at 37° C. The transepithelial voltage was short-circuited with a voltage-clamp (DVC-1000, World Precision Instruments) connected to the apical and basolateral chambers via Ag/AgCl electrodes and agar bridges (1 M KCl in 1% agar). The offset between voltage electrodes and the fluid resistance were canceled before experiments. The short-circuit current was recorded with a PowerLab 4/25 (ADInstruments) analogical to digital converter connected to a Macintosh computer. […] The difference between the current measured with CPT-cAMP plus potentiator and the current remaining after CFTRinh-172 treatment ([…]ICFTR) was taken as the parameter reflecting F508del-CFTR expression in the apical membrane.
Activities of selected compounds on HBE cells tested at 1.0 µM (expressed as […]ICFTR) are illustrated in table 3 wherein +: […]ICFTR<2.0 µA; ++: 2 μA<[…]ICFTR<3.0 μA; +++: […]ICFTR>3.0 µA.

mutant CFTR = biological target: T2, mutant CFTR (Homo sapiens, UniProt P13569, DEL508-508); experiment: Fluorescence (HS-YFP) assay for CFTR activity, corrector assay; details: CFBE41o- and FRT cells with stable expression of mutant CFTR, read-out: activity (EC50)
T2 construct: expressed in transfected cells
T2 sequence (P13569 with tags, fused parts or gaps DEL508-508): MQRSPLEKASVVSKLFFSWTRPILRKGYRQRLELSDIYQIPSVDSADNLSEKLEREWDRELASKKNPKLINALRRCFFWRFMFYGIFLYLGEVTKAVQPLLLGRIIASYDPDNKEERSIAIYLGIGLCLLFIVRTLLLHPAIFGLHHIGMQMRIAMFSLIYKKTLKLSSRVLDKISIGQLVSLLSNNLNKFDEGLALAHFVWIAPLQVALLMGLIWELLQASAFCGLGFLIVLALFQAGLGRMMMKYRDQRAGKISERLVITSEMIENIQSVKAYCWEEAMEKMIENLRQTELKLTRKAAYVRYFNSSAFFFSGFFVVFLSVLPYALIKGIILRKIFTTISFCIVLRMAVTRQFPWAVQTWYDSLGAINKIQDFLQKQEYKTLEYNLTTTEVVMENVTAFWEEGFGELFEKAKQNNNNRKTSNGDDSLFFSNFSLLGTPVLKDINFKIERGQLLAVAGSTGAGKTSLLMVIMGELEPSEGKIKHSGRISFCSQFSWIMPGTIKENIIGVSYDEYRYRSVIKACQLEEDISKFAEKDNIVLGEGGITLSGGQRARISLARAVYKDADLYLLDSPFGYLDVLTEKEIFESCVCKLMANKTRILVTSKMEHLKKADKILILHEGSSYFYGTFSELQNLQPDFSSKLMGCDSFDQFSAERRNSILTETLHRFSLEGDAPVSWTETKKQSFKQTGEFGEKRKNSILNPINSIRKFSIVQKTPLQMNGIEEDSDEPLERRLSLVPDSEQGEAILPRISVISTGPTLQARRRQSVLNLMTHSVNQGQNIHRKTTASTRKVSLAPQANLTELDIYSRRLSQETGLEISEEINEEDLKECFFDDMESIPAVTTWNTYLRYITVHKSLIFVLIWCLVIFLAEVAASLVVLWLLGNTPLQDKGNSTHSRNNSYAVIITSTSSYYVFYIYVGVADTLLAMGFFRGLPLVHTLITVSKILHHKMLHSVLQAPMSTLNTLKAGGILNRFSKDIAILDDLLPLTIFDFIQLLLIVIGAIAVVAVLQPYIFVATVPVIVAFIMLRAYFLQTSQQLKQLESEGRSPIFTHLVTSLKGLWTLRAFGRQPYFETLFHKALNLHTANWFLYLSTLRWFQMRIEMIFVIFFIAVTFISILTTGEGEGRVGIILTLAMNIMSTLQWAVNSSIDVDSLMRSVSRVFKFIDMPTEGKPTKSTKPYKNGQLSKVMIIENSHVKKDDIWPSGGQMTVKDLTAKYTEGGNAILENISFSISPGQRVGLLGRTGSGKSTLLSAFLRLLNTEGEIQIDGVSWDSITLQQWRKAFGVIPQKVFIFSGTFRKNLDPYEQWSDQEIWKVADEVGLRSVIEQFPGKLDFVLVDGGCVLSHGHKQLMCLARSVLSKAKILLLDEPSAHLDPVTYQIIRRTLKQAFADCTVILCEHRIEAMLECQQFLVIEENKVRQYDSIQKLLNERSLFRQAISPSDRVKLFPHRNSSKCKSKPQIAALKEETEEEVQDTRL

T1 sequence (P13569 with tags, fused parts or gaps DEL508-508): as above

Compound	Corrector activity (expressed as ΔTEEC values) (F508del-CFTR [1])	activity on HBE cells (expressed as […]ICFTR) (F508del-CFTR [2])	pEC50 (mutant CFTR)
CN(C(=O)c1cccc(-n2nc(C(F)(F)F)c3c2CC2CCC3N2C(=O)OC(C)(C)C)c1)c1ccc2c(c1)OCO2 (racemic) [Compound 018, tert-Butyl 1-(3-(benzo[d][1,3]dioxol-5-yl(methyl)carbamoyl)phenyl)-3-(trifluoromethyl)-1,4,5,6,7,8-hexahydro-4,7-epiminocyclohepta[c]pyrazole-9-carboxylate]	+++ (ΔTEEC>3000 µS)	+++ ([…]ICFTR>3.0 µA)	> 6.00
CN1CCc2c(c(C(F)(F)F)nn2-c2cccc(C(=O)N(C)c3ccc4c(c3)OCO4)c2)C1 [Compound 003, N-(1,3-Benzodioxol-5-yl)-N-methyl-3-[5-methyl-3-(trifluoromethyl)-6,7-dihydro-4H-pyrazolo[4,3-c]pyridin-1-yl]benzamide]	++ (2000 µS<ΔTEEC<3000[…]S)	++ (2 μA<[…]ICFTR<3.0 μA)	> 6.00
CN(C(=O)c1cccc(-n2nc(C(F)(F)F)c3c2CCN(C(=O)Nc2ccccc2)C3)c1)c1ccc2c(c1)OCO2 [Compound 010, 1-[3-[1,3-Benzodioxol-5-yl(methyl)carbamoyl]phenyl]-N-phenyl-3-(trifluoromethyl)-6,7-dihydro-4H-pyrazolo[4,3-c] pyridine-5-carboxamide]	++ (2000 µS<ΔTEEC<3000[…]S)	++ (2 μA<[…]ICFTR<3.0 μA)	> 6.00
CN(C(=O)c1cccc(-n2nc(C(F)(F)F)c3c2CCN(C(=O)C(C)(C)C)C3)c1)c1ccc2c(c1)OCO2 [Compound 011, N-(1,3-Benzodioxol-5-yl)-3-[5-(2,2-dimethylpropanoyl)-3-(trifluoromethyl)-6,7-dihydro-4H-pyrazolo[4,3-c]pyridin-1-yl]-N-methyl-benzamide]	++ (2000 µS<ΔTEEC<3000[…]S)	++ (2 μA<[…]ICFTR<3.0 μA)	> 6.00
CN(C(=O)c1cccc(-n2nc(C(F)(F)F)c3c2CCN(Cc2ccccc2)C3)c1)c1ccc2c(c1)OCO2 [Compound 012, N-(1,3-Benzodioxol-5-yl)-3-[5-benzyl-3-(trifluoromethyl)-6,7-dihydro-4H-pyrazolo[4,3-c]pyridin-1-yl]-N-methyl-benzamide]	++ (2000 µS<ΔTEEC<3000[…]S)	+ ([…]ICFTR<2.0 µA)	> 6.00
COC(=O)c1cccc(CN2CCc3c(c(C(F)(F)F)nn3-c3cccc(C(=O)N(C)c4ccc5c(c4)OCO5)c3)C2)c1 [Compound 020, Methyl 3-[[1-[3-[1,3-benzodioxol-5-yl(methyl)carbamoyl]phenyl]-3-(trifluoromethyl)-6,7-dihydro-4H-pyrazolo[4,3-c]pyridin-5-yl]methyl]benzoate]	+++ (ΔTEEC>3000 µS)	++ (2 μA<[…]ICFTR<3.0 μA)	> 6.00
CN(C(=O)c1cccc(-n2nc(C(F)(F)F)c3c2CCN(C2CCC2)C3)c1)c1ccc2c(c1)OCO2 [Compound 032, N-(1,3-Benzodioxol-5-yl)-3-[5-cyclobutyl-3-(trifluoromethyl)-6,7-dihydro-4H-pyrazolo[4,3-c]pyridin-1-yl]-N-methyl-benzamide]	++ (2000 µS<ΔTEEC<3000[…]S)	++ (2 μA<[…]ICFTR<3.0 μA)	> 6.00
